According to the NIST ThermoML archive (doi:10.1016/j.jct.2010.11.003):
“And” between values parts separate entries of the source, which are not always exact repeats. Identical values can stand only once.

Assay: mn = molality of the nth substance listed, in mol/kg
Conditions: 101 kPa, Liquid; for speed of sound: Sing-around technique in a fixed-path interferometer; for mass density: Vibrating tube method; for viscosity: Capillary tube (Ostwald / Ubbelohde) method

O=C([O-])CC(O)(CC(=O)[O-])C(=O)[O-].[K+].[K+].[K+] [potassium citrate] + O
Conditions | mass density [kg/m3] | speed of sound | viscosity
293.15 K, m1 = 0.0472 | 1007.81 | 1492.8 m/s | –
293.15 K, m1 = 0.0566 | 1009.7 | 1494.6 m/s | –
293.15 K, m1 = 0.066 | 1011.58 | 1496.5 m/s | –
293.15 K, m1 = 0.0754 | 1013.45 | 1498.3 m/s | –
293.15 K, m1 = 0.0849 | 1015.34 | 1500.2 m/s | –
293.15 K, m1 = 0.0943 | 1017.2 | 1502.1 m/s | –
293.15 K, m1 = 0.2984 | 1055.65 | 1540.4 m/s | –
293.15 K, m1 = 0.3971 | 1073.05 | 1558.2 m/s | –
293.15 K, m1 = 0.4955 | 1089.85 | 1576 m/s | –
293.15 K, m1 = 0.5936 | 1106.03 | 1593.3 m/s | –
293.15 K, m1 = 0.7877 | 1136.49 | 1626.4 m/s | –
293.15 K, m1 = 0.9823 | 1165.2 | 1658.6 m/s | –
293.15 K, m1 = 1.175 | 1191.92 | 1689.6 m/s | –
293.15 K, m1 = 1.366 | 1216.69 | 1718.7 m/s | –
293.15 K, m1 = 1.555 | 1239.9 | 1746.2 m/s | –
293.15 K, m1 = 1.837 | 1272.28 | 1784.9 m/s | –
298.15 K, m1 = 0.0472 | 1006.59 | 1506.6 m/s | 1.027 mPa·s and 0.911 mPa·s
298.15 K, m1 = 0.0566 | 1008.46 | 1508.5 m/s | 0.918 mPa·s and 1.027 mPa·s
298.15 K, m1 = 0.066 | 1010.33 | 1510.3 m/s | 0.924 mPa·s and 1.029 mPa·s
298.15 K, m1 = 0.0754 | 1012.19 | 1512 m/s | 0.93 mPa·s and 1.033 mPa·s
298.15 K, m1 = 0.0849 | 1014.06 | 1513.9 m/s | 0.935 mPa·s and 1.037 mPa·s
298.15 K, m1 = 0.0943 | 1015.89 | 1515.7 m/s | 0.942 mPa·s and 1.041 mPa·s
298.15 K, m1 = 0.2984 | 1054.02 | 1552.8 m/s | 1.065 mPa·s and 1.132 mPa·s
298.15 K, m1 = 0.3971 | 1071.35 | 1570.1 m/s | 1.13 mPa·s and 1.183 mPa·s
298.15 K, m1 = 0.4955 | 1088.07 | 1587 m/s | 1.2 mPa·s and 1.238 mPa·s
298.15 K, m1 = 0.5936 | 1104.21 | 1603.8 m/s | 1.274 mPa·s and 1.295 mPa·s
298.15 K, m1 = 0.7877 | 1134.65 | 1636.2 m/s | 1.423 mPa·s and 1.441 mPa·s
298.15 K, m1 = 0.9823 | 1163.14 | 1667.5 m/s | 1.575 mPa·s and 1.624 mPa·s
298.15 K, m1 = 1.175 | 1189.77 | – | 1.733 mPa·s and 1.837 mPa·s
298.15 K, m1 = 1.366 | 1214.46 | – | 1.92 mPa·s and 2.072 mPa·s
298.15 K, m1 = 1.555 | 1237.68 | – | 2.121 mPa·s and 2.334 mPa·s
298.15 K, m1 = 1.837 | 1269.96 | – | 2.476 mPa·s and 2.788 mPa·s
303.15 K, m1 = 0.0472 | 1005.15 | 1518.1 m/s | 0.821 mPa·s
303.15 K, m1 = 0.0566 | 1007.02 | 1519.9 m/s | 0.822 mPa·s
303.15 K, m1 = 0.066 | 1008.87 | 1521.7 m/s | 0.825 mPa·s
303.15 K, m1 = 0.0754 | 1010.72 | 1523.5 m/s | 0.832 mPa·s
303.15 K, m1 = 0.0849 | 1012.58 | 1525.3 m/s | 0.837 mPa·s
303.15 K, m1 = 0.0943 | 1014.42 | 1527 m/s | 0.843 mPa·s
303.15 K, m1 = 0.2984 | 1052.39 | 1563.6 m/s | 0.956 mPa·s
303.15 K, m1 = 0.3971 | 1069.63 | 1580.3 m/s | 1.016 mPa·s
303.15 K, m1 = 0.4955 | 1086.25 | 1596.8 m/s | 1.08 mPa·s
303.15 K, m1 = 0.5936 | 1102.31 | 1613.3 m/s | 1.145 mPa·s
303.15 K, m1 = 0.7877 | 1132.65 | 1644.5 m/s | 1.295 mPa·s
303.15 K, m1 = 0.9823 | 1161.02 | 1674.8 m/s | 1.458 mPa·s
303.15 K, m1 = 1.175 | 1187.66 | 1697.5 m/s | 1.647 mPa·s
303.15 K, m1 = 1.366 | 1212.46 | 1725.7 m/s | 1.853 mPa·s
303.15 K, m1 = 1.555 | 1235.64 | 1752.6 m/s | 2.085 mPa·s
303.15 K, m1 = 1.837 | 1267.94 | 1790.3 m/s | 2.484 mPa·s
308.15 K, m1 = 0.0472 | 1003.5 | 1529 m/s | 0.739 mPa·s
308.15 K, m1 = 0.0566 | 1005.36 | 1530.8 m/s | 0.741 mPa·s
308.15 K, m1 = 0.066 | 1007.2 | 1532.5 m/s | 0.744 mPa·s
308.15 K, m1 = 0.0754 | 1009.04 | 1534.2 m/s | 0.749 mPa·s
308.15 K, m1 = 0.0849 | 1010.89 | 1535.9 m/s | 0.754 mPa·s
308.15 K, m1 = 0.0943 | 1012.72 | 1537.6 m/s | 0.76 mPa·s
308.15 K, m1 = 0.2984 | 1050.43 | 1572.8 m/s | 0.861 mPa·s
308.15 K, m1 = 0.3971 | 1067.62 | 1589 m/s | 0.916 mPa·s
308.15 K, m1 = 0.4955 | 1084.2 | 1605.1 m/s | 0.975 mPa·s
308.15 K, m1 = 0.5936 | 1100.17 | 1620.8 m/s | 1.036 mPa·s
308.15 K, m1 = 0.7877 | 1130.41 | 1651.3 m/s | 1.168 mPa·s
308.15 K, m1 = 0.9823 | 1158.81 | 1681 m/s | 1.316 mPa·s
308.15 K, m1 = 1.175 | 1185.33 | 1704 m/s | 1.486 mPa·s
308.15 K, m1 = 1.366 | 1210.05 | 1731.7 m/s | 1.671 mPa·s
308.15 K, m1 = 1.555 | 1233.31 | 1757.9 m/s | 1.875 mPa·s
308.15 K, m1 = 1.837 | 1265.24 | 1794.7 m/s | 2.231 mPa·s
313.15 K, m1 = 0.0472 | 1001.66 | 1538.1 m/s | 0.665 mPa·s
313.15 K, m1 = 0.0566 | 1003.51 | 1539.8 m/s | 0.668 mPa·s
313.15 K, m1 = 0.066 | 1005.35 | 1541.4 m/s | 0.672 mPa·s
313.15 K, m1 = 0.0754 | 1007.18 | 1543 m/s | 0.675 mPa·s
313.15 K, m1 = 0.0849 | 1009.03 | 1544.7 m/s | 0.68 mPa·s
313.15 K, m1 = 0.0943 | 1010.86 | 1546.4 m/s | 0.684 mPa·s
313.15 K, m1 = 0.2984 | 1048.42 | 1580.5 m/s | 0.783 mPa·s
313.15 K, m1 = 0.3971 | 1065.62 | 1596.5 m/s | 0.832 mPa·s
313.15 K, m1 = 0.4955 | 1082.12 | 1612 m/s | 0.887 mPa·s
313.15 K, m1 = 0.5936 | 1098.03 | 1627.4 m/s | 0.94 mPa·s
313.15 K, m1 = 0.7877 | 1128.2 | 1657.5 m/s | 1.063 mPa·s
313.15 K, m1 = 0.9823 | 1156.41 | 1686.1 m/s | 1.196 mPa·s
313.15 K, m1 = 1.175 | 1182.97 | 1709.4 m/s and 1714 m/s | 1.351 mPa·s
313.15 K, m1 = 1.366 | 1207.69 | 1736.3 m/s and 1740.3 m/s | 1.516 mPa·s
313.15 K, m1 = 1.555 | 1230.6 | 1762.1 m/s and 1765.2 m/s | 1.697 mPa·s
313.15 K, m1 = 1.837 | 1262.83 | 1797.6 m/s and 1800.3 m/s | 2.013 mPa·s
